Test results: PubChem BioAssay AID2060620 (Molecular Pharmacology Branch, DTP, NCI, 2025)

Test system: 328373-195-R-J1-PDC complex spheroids, viability % test/control
Test: Anticancer human tumor 328373-195-R-J1-PDC patient-derived head and neck squamous carcinoma cell line growth inhibition [CLK]
Settings: for IC50: curve of first compound; for viability, T/C: stronger effect = lower value; active means viability on the fitted dose curve at most 10% of control; inactive means the rest
In short: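 Patient-derived tumor cells grown as complex spheroids with HUVEC endothelial cells and mesenchymal stem cells, treated with drug combinations. Concentrations descend in half-log steps from near clinical Cmax, or from 10 microM if Cmax unknown.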

[1] = second compound 0.0316 µM, first compound 0.00949 µM
[2] = second compound 0.0316 µM, first compound 0.03 µM
[3] = second compound 0.0316 µM, first compound 0.0949 µM
[4] = second compound 0.0316 µM, first compound 0.3 µM
[5] = second compound 0.1 µM, first compound 0.00949 µM
[6] = second compound 0.1 µM, first compound 0.03 µM
[7] = second compound 0.1 µM, first compound 0.0949 µM
[8] = second compound 0.1 µM, first compound 0.3 µM
[9] = second compound 0.316 µM, first compound 0.00949 µM
[10] = second compound 0.316 µM, first compound 0.03 µM
[11] = second compound 0.316 µM, first compound 0.0949 µM
[12] = second compound 0.316 µM, first compound 0.3 µM
[13] = second compound 1 µM, first compound 0.00949 µM
[14] = second compound 1 µM, first compound 0.03 µM
[15] = second compound 1 µM, first compound 0.0949 µM
[16] = second compound 1 µM, first compound 0.3 µM
[17] = second compound 3.16 µM, first compound 0.00949 µM
[18] = second compound 3.16 µM, first compound 0.03 µM
[19] = second compound 3.16 µM, first compound 0.0949 µM
[20] = second compound 3.16 µM, first compound 0.3 µM
[21] = second compound 10 µM, first compound 0.00949 µM
[22] = second compound 10 µM, first compound 0.03 µM
[23] = second compound 10 µM, first compound 0.0949 µM
[24] = second compound 10 µM, first compound 0.3 µM
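Further: spheroids exposed to the agents for 7 days.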

C=CC(=O)Nc1cc(Nc2nccc(-c3cn(C)c4ccccc34)n2)c(OC)cc1N(C)CCN(C)C + CNC(=O)c1ccc(Nc2nc(OC3CCCC3)c3c(-c4ccc5nc(C)oc5c4)c[nH]c3n2)c(OC)c1
inactive: viability, T/C (second compound 0.0316 µM, first compound 0.000949 µM) 53.9% | viability, T/C (second compound 0.0316 µM, first compound 0.003 µM) 60.2% | viability, T/C [1] 57.1% | viability, T/C [2] 50.1% | viability, T/C [3] 44% | viability, T/C [4] 28.7% | viability, T/C (second compound 0.1 µM, first compound 0.000949 µM) 12.7% | viability, T/C (second compound 0.1 µM, first compound 0.003 µM) 11.5% | viability, T/C (second compound 0.316 µM, first compound 0.000949 µM) 10.9% | viability, T/C (second compound 1 µM, first compound 0.000949 µM) 9.22% | viability, T/C (second compound 1 µM, first compound 0.003 µM) 11.8% | viability, T/C (second compound 3.16 µM, first compound 0.000949 µM) 10.8% | viability, T/C (second compound 3.16 µM, first compound 0.003 µM) 9.2% | viability, T/C (second compound 10 µM, first compound 0.000949 µM) 12% | viability, T/C (second compound 10 µM, first compound 0.003 µM) 10.6% | viability, T/C [21] 11.6%
active: viability, T/C [5] 10% | viability, T/C [6] 10.6% | viability, T/C [7] 6.8% | viability, T/C [8] 4.77% | viability, T/C (second compound 0.316 µM, first compound 0.003 µM) 9.46% | viability, T/C [9] 9.6% | viability, T/C [10] 11.1% | viability, T/C [11] 7.49% | viability, T/C [12] 5.37% | viability, T/C [13] 9.93% | viability, T/C [14] 9.14% | viability, T/C [15] 7.31% | viability, T/C [16] 3.84% | viability, T/C [17] 10.8% | viability, T/C [18] 10.1% | viability, T/C [19] 8.03% | viability, T/C [20] 3.03% | viability, T/C [22] 11.5% | viability, T/C [23] 9.82% | viability, T/C [24] 3.85%
< 0.949 nM: IC50 (second compound 0.1 µM) | IC50 (second compound 0.316 µM) | IC50 (second compound 1 µM) | IC50 (second compound 3.16 µM) | IC50 (second compound 10 µM)
39.4 nM: IC50 (second compound 0.0316 µM)

NC(=O)C(=Cn1cnc(-c2cc(C(F)(F)F)cc(C(F)(F)F)c2)n1)c1cncnc1 + CNC(=O)c1ccc(Nc2nc(OC3CCCC3)c3c(-c4ccc5nc(C)oc5c4)c[nH]c3n2)c(OC)c1
inactive: viability, T/C [1] 38.7% | viability, T/C [2] 20.8% | viability, T/C [5] 15.9%
active: viability, T/C [3] 0.53% | viability, T/C [4] 0.2% | viability, T/C (second compound 0.0316 µM, first compound 0.949 µM) 0.1% | viability, T/C (second compound 0.0316 µM, first compound 3 µM) 0.07% | viability, T/C [6] 3.9% | viability, T/C [7] 0.26% | viability, T/C [8] 0.16% | viability, T/C (second compound 0.1 µM, first compound 0.949 µM) 0.11% | viability, T/C (second compound 0.1 µM, first compound 3 µM) 0.06% | viability, T/C [9] 6.88% | viability, T/C [10] 2.56% | viability, T/C [11] 0.37% | viability, T/C [12] 0.09% | viability, T/C (second compound 0.316 µM, first compound 0.949 µM) 0.1% | viability, T/C (second compound 0.316 µM, first compound 3 µM) 1.78% | viability, T/C [13] 5.63% | viability, T/C [14] 1.81% | viability, T/C [15] 0.17% | viability, T/C [16] 0.06% | viability, T/C (second compound 1 µM, first compound 0.949 µM) 0.08% | viability, T/C (second compound 1 µM, first compound 3 µM) 0.06% | viability, T/C [17] 5.68% | viability, T/C [18] 1.86% | viability, T/C [19] 0.15% | viability, T/C [20] 0.15% | viability, T/C (second compound 3.16 µM, first compound 0.949 µM) 1.8% | viability, T/C (second compound 3.16 µM, first compound 3 µM) 0.15% | viability, T/C [21] 5.83% | viability, T/C [22] 2.16% | viability, T/C [23] 0.18% | viability, T/C [24] 0.11% | viability, T/C (second compound 10 µM, first compound 0.949 µM) 0.18% | viability, T/C (second compound 10 µM, first compound 3 µM) 0.15%
< 9.49 nM: IC50 (second compound 0.0316 µM) | IC50 (second compound 0.1 µM) | IC50 (second compound 0.316 µM) | IC50 (second compound 1 µM) | IC50 (second compound 3.16 µM) | IC50 (second compound 10 µM)

Nc1ccccc1NC(=O)c1ccc(CNC(=O)OCc2cccnc2)cc1 + CNC(=O)c1ccc(Nc2nc(OC3CCCC3)c3c(-c4ccc5nc(C)oc5c4)c[nH]c3n2)c(OC)c1
active: viability, T/C (second compound 0.0316 µM, first compound 10 µM) 4.85% | viability, T/C (second compound 0.1 µM, first compound 3.16 µM) 13.8% | viability, T/C (second compound 0.1 µM, first compound 10 µM) 4.28% | viability, T/C (second compound 0.316 µM, first compound 0.0316 µM) 9.94% | viability, T/C (second compound 0.316 µM, first compound 0.1 µM) 9.86% | viability, T/C (second compound 0.316 µM, first compound 0.316 µM) 8.75% | viability, T/C (second compound 0.316 µM, first compound 1 µM) 9.9% | viability, T/C (second compound 0.316 µM, first compound 3.16 µM) 15.7% | viability, T/C (second compound 0.316 µM, first compound 10 µM) 4.12% | viability, T/C (second compound 1 µM, first compound 0.0316 µM) 9.33% | viability, T/C (second compound 1 µM, first compound 0.1 µM) 7.31% | viability, T/C (second compound 1 µM, first compound 0.316 µM) 9.56% | viability, T/C (second compound 1 µM, first compound 1 µM) 11.4% | viability, T/C (second compound 1 µM, first compound 3.16 µM) 14.1% | viability, T/C (second compound 1 µM, first compound 10 µM) 3.25% | viability, T/C (second compound 3.16 µM, first compound 0.0316 µM) 9.23% | viability, T/C (second compound 3.16 µM, first compound 0.1 µM) 8.04% | viability, T/C (second compound 3.16 µM, first compound 0.316 µM) 10.8% | viability, T/C (second compound 3.16 µM, first compound 1 µM) 10.7% | viability, T/C (second compound 3.16 µM, first compound 3.16 µM) 15.6% | viability, T/C (second compound 3.16 µM, first compound 10 µM) 3.34% | viability, T/C (second compound 10 µM, first compound 10 µM) 3.38%
inactive: viability, T/C (second compound 0.0316 µM, first compound 0.0316 µM) 54.2% | viability, T/C (second compound 0.0316 µM, first compound 0.1 µM) 46.5% | viability, T/C (second compound 0.0316 µM, first compound 0.316 µM) 35.2% | viability, T/C (second compound 0.0316 µM, first compound 1 µM) 23.1% | viability, T/C (second compound 0.0316 µM, first compound 3.16 µM) 19.5% | viability, T/C (second compound 0.1 µM, first compound 0.0316 µM) 12.5% | viability, T/C (second compound 0.1 µM, first compound 0.1 µM) 11.8% | viability, T/C (second compound 0.1 µM, first compound 0.316 µM) 10.5% | viability, T/C (second compound 0.1 µM, first compound 1 µM) 12.9% | viability, T/C (second compound 10 µM, first compound 0.0316 µM) 12.2% | viability, T/C (second compound 10 µM, first compound 0.1 µM) 9.96% | viability, T/C (second compound 10 µM, first compound 0.316 µM) 10.2% | viability, T/C (second compound 10 µM, first compound 1 µM) 12.4% | viability, T/C (second compound 10 µM, first compound 3.16 µM) 15.5%
55 nM: IC50 (second compound 0.0316 µM)
< 31.6 nM: IC50 (second compound 0.1 µM) | IC50 (second compound 0.316 µM) | IC50 (second compound 1 µM) | IC50 (second compound 3.16 µM) | IC50 (second compound 10 µM)
